Data: patent US7579371B2, “Methods of using [3.2.0] heterocyclic compounds and analogs thereof” (Nereus Pharmaceuticals, Inc., priority 2004, dated 2009)

Legend:
[1] = system: HT-29; test: Cell growth inhibition assay (resazurin, 48 h); format: cell-based, human; conditions: HT-29, 48 h
Experimental: RPMI 8226 (CCL-155), HT-29 (HTB-38), and B16-F10 (CRL-6475) cells were purchased from ATCC. RPMI 8226 cells were maintained in RPMI 1640 media supplemented with 10% (v/v) FBS, 2 mM L-glutamine, 1 mM sodium pyruvate and Penicillin/Streptomycin at 100 IU/ml and 100 μg/ml, respectively. HT-29 cells were maintained in McCoys 5A supplemented with 10% (v/v) FBS, 2 mM L-glutamine, 1 mM sodium pyruvate, 1% (v/v) non-essential amino acids, 10 mM HEPES and Penicillin/Streptomycin at 100 IU/ml and 100 μg/ml, respectively. B16-F10 cells were maintained in DMEM supplemented with 10% (v/v) FBS, 2 mM L-glutamine, 10 mM HEPES and Penicillin/Streptomycin at 100 IU/ml and 100 μg/ml, respectively.
RPMI 8226 cells were seeded at 2×10^4 cells/well in 90 μl RPMI media containing 10% (v/v) FBS or 1% (v/v) FBS into 96 well black-walled, clear-bottom tissue culture plates. […] Formulae II-16, II-17 and Formula II-18 were serially diluted in media containing 1% or 10% FBS and added in triplicate to the test wells. […] The final concentration of Formula II-18 ranged from 2 μM to 630 pM.

[2] = system: NF-κB; test: NF-κB-mediated luciferase reporter gene assay, HEK293 NF-κB/Luc cells, TNF-α stimulation; format: cell-based; conditions: Homo sapiens, HEK293, read-out: EC50, NF-κB-mediated luciferase activity, 1 hr pretreatment, 6 hours TNF-α
Experimental: The HEK293 NF-κB/luciferase reporter cell line is a derivative of the human embryonic kidney cell line (ATCC; CRL-1573) and carries a luciferase reporter gene under the regulation of 5× NF-κB binding sites. […] When performing the luciferase assay, the DMEM basal medium was replaced with phenol-red free DMEM basal medium and the G418 was omitted.
For NF-κB-mediated luciferase assays, HEK293 NF-κB/luciferase cells were seeded at 1.5×10^4 cells/well in 90 μl phenol-red free DMEM complete medium into Corning 3917 white opaque-bottom tissue culture plates. For Formulae II-2, II-4, II-5A and II-18, a 400 μM starting dilution was made in 100% DMSO and this dilution was used to generate an 8-point half log dilution series. […] For formula II-20, a 2.5 mM or 8 mM starting dilution was made in 100% DMSO and the final test concentrations ranged from 6.3 μM to 2.0 nM or 20 μM to 6.3 nM respectively. The plates were returned to the incubator for 1 hour. After 1 hr pretreatment, 10 μl of a 50 ng/ml TNF-α solution, prepared in the phenol-red free DMEM medium was added, and the plates were incubated for an additional 6 hours.
At the end of the TNF-α stimulation, 100 μl of Steady Lite HTS luciferase reagent (Packard Bioscience) was added to each well and the plates were left undisturbed for 10 min at room temperature before measuring the luciferase activity. The relative luciferase units (RLU) were measured by using a Fusion microplate fluorometer (Packard Bioscience).
NF-κB inducible luciferase activity was measured at 6 hours.

[3] = target: T1, proteasome chymotrypsin-like activity in packed whole blood lysate (Mus musculus, UniProt O55234); test: Proteasome activity in packed whole blood lysate (PWBL) of treated mice; format: in vivo; conditions: 90 minutes
T1 construct: The supernatant (Packed Whole Blood Lysate, PWBL) was transferred to a fresh tube; from tissue; host or cells: packed whole blood cells of Swiss-Webster mice (lysate)
Experimental: In brief, frozen whole blood samples were thawed on ice for one hour, and resuspended in 700 μL of ice cold 5 mM EDTA, pH 8.0 in order to lyse the cells by hypotonic shock. This represents approximately 2-3 times the volume of the packed whole blood cells. Lysis was allowed to proceed for one hour, and the cellular debris was removed by centrifugation at 14,000×g for 10 minutes. The supernatant (Packed Whole Blood Lysate, PWBL) was transferred to a fresh tube, and the pellet discarded. Protein concentration of the PWBL was determined by BCA assay (Pierce) using BSA as a standard.
Proteasome activity was determined by measuring the hydrolysis of a fluorogenic substrate specific for the chymotrypsin-like activity of proteasomes (suc-LLVY-AMC, Bachem Cat. I-1395). […] Hydrolysis of the substrate results in the release of free AMC, which was measured fluorometrically by using λex=390 nm and λem=460 nm. The rate of hydrolysis in this system is linear for at least one hour. The hydrolysis rate of each sample is then normalized to relative fluorescent units per milligram of protein (RFU/mg).
The vehicle control consisted of 2% DMSO in 10% solutol. […] Packed whole blood cells were collected by centrifugation, washed with PBS, and re-centrifuged. All samples were stored at −80° C. prior to the evaluation of the proteasome activity. […]

[4] = system: Caspase-3; test: Caspase-3 activity assay in Jurkat cells; format: cell-based, human; conditions: EC50 concentration, 19 hours
Experimental: Jurkat cells were plated at 2×10^6 cells/3 mL per well in a 6-well plate and incubated at 37° C., 5% (v/v) CO2 and 95% (v/v) humidity. […] Bhalla, et al., Blood 82:3133 (1993). […] Cells treated with 0.25% DMSO served as the negative control. The cells were collected by centrifugation and the media removed. Cell pellets were processed for the Caspase-3 activity assay as described in the manufacturer's protocol (EnzChek Caspase-3 Assay Kit from Molecular Probes (E-13183; see Appendix G, which form a part of this application and is also available at hypertext transfer protocol on the worldwide web at “probes.com.media/pis/mp13183.pdf.”. In brief, cell pellets were lysed on ice, mixed with the EnzChek Caspase-3 components in a 96-well plate, and then incubated in the dark for 30 minutes prior to reading fluorescence of cleaved benzyloxycarbonyl-DEVD-[…] using a Packard Fusion with λex=485 nm and λem=530 nm filters. Protein concentrations for lysates were determined using the BCA Protein Assay Kit (Pierce) and these values were used for normalization.

[5] = system: HL-60; test: cells; conditions: Homo sapiens, HL-60, 48 h
[6] = system: RAW264.7 cells; test: cells; conditions: Mus musculus

T1 sequence (O55234 60-264): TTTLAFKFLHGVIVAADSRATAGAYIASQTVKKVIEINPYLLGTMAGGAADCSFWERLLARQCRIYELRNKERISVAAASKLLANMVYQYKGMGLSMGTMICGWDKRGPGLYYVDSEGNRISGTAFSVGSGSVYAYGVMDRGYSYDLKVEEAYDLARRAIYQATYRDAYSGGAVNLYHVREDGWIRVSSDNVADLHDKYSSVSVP

C[C@@]12OC(=O)[C@]1([C@@H](O)[C@@H]1C=CCCC1)NC(=O)[C@@H]2CCCl [Formula II-16, Salinosporamide A]
EC50 [1]: 40 ± 26 nM | EC50 ([1]; Homo sapiens): 47 nM | EC50 [2]: ~7 nM | proteasomal activity in PWBL after oral administration [3]: active upon oral administration | Caspase-3 activity [4]: activation of Caspase-3 | EC50 [5]: 27 nM | EC50 ([6]; RAW264.7, read-out: EC50, inhibition of LeTx-mediated cytotoxicity): < 4 nM | viability at […] ([6]; RAW264.7, read-out: cell-viability, compound + LeTx): 82%
